Four molecules from EP4792813A1, “USE OF […] PREPARATION OF DRUG FOR PREVENTING AND TREATING SEPSIS AND SEPSIS-INDUCED ORGAN DAMAGE” (Lunan Pharmaceutical Group Corporation, priority 2023, dated 2025) can be followed below.

Molecules are shown by their SMILES.

Assay type in all cases: in vivo, C57BL/6J mice
Assay [1] deals with mice with LPS-induced sepsis. Description: 48 h survival rate of mice with LPS-induced sepsis. The note with it: within 48 h after 20 mg/kg LPS; result in words; FIG. 2. As for the experimental part: (§1) After 1 week of acclimatization, mice were randomly divided into 8 groups: normal group, model group, positive control group, control group 1, control group 2, and compound I low-, medium- and high-dose groups, with 20 mice in each group. […] After the experiment was started, the normal group and model group were intraperitoneally injected with normal saline according to the body weight. The positive control group was intraperitoneally injected with 1 mg/kg dexamethasone. The Compound I low-, medium- and high-dose groups were intraperitoneally injected with 1 mg/kg, 2.5 mg/kg and 5 mg/kg compound I according to the body weight, respectively. The control group 1 was intraperitoneally injected with 5 mg/kg control compound 1 according to the body weight, and the control group 2 was intraperitoneally injected with 5 mg/kg control compound 2 according to the body weight. After 1 h, the normal group was intraperitoneally injected with normal saline according to the body weight, and the model group and each administration group were injected with 20 mg/kg LPS and then dissected 24 h later.
4.4 After 48 h, the survival rate of the remaining 10 mice in each group was observed.

Assay [2] concerns mice with LPS-induced sepsis. Description: Serum biochemical parameters (ALT, AST, UREA, CREA-S) in mice with LPS-induced sepsis. Also on record: CREA-S: unit not given here. The note with it: for ALT / AST / CREA-S / UREA: serum, 24 h after LPS, x±s, n = 7; for serum ALT, AST, UREA and CREA-S levels: result in words, compared with the model group. As to the method:
as §1
A series of operations were performed on the serum in accordance with the instructions of the kits to detect ALT, AST, UREA and CREA-S concentrations.

The subject of assay [3] is mice with LPS-induced sepsis-associated encephalopathy. As to the kind of experiment: Nissl staining of hippocampus in mice with LPS-induced sepsis-associated encephalopathy. The settings on record: 1, 2.5 and 5 mg/kg i.p. 1 h before 25 mg/kg LPS; 24 h; compared with the model group. As for the experimental part:
(§2) After 1 week of acclimatization, 60 male C57BL/6J mice were randomly divided into five groups: normal group, model group, Compound I low-dose group, Compound I medium-dose group and Compound I high-dose group, with 12 mice per group.
(§3) After the experiment was started, the normal group and model group were intraperitoneally injected with normal saline according to the body weight. The Compound I low-, medium- and high-dose groups were intraperitoneally injected with 1 mg/kg, 2.5 mg/kg and 5 mg/kg Compound I according to the body weight, respectively. After 1 h, the normal group was intraperitoneally injected with a corresponding volume of normal saline according to the body weight of the mice, while the model group and each administration group were injected with 25 mg/kg LPS. The administration volume was 10 mL/kg. After 24 h, the mice were anesthetized with pentobarbital sodium. The skull was opened and the brain was harvested, rinsed with normal saline, blotted dry with filter paper, and weighed. The brain index was calculated based on the following formula: Brain index = brain weight/body weight × 100% [formula]
The prepared sections were dried and dewaxed, and then stained with a Nissl staining solution for 90 min. […]

Assay [4] shares this test system. As to the kind of experiment: Brain index in mice with LPS-induced sepsis-associated encephalopathy. The note with it: 1, 2.5 and 5 mg/kg i.p. 1 h before 25 mg/kg LPS; 24 h; compared with the model group (p<0.01). As to the method: as §2, §3
The subject of assay [5] is mice with LPS-induced sepsis. Description: HE staining of kidney tissue sections in mice with LPS-induced sepsis. The settings on record: 24 h after intraperitoneal injection of 20 mg/kg LPS, compared with the model group, FIG. 1. As to the method:
as §1
Mouse kidney tissue sections were stained using a hematoxylin-eosin (HE) staining method. First, the baked sections were dewaxed using xylene until the sections became transparent. The dewaxed sections were rinsed with ethanol to remove xylene and then rinsed with distilled water. […]

For assay [6], the system named is mice with LPS-induced sepsis-associated encephalopathy. Description: Novel object recognition test in mice with LPS-induced sepsis-associated encephalopathy. The settings on record: 1, 2.5 and 5 mg/kg i.p. on days 1-3, 7.5 mg/kg LPS on days 1 and 2; compared with the model group; FIG. 6. As for the experimental part:
as §2
On day 1 of the experiment, the normal group and model group were intraperitoneally injected with normal saline according to the body weight. The Compound I low-, medium- and high-dose groups were intraperitoneally injected with 1 mg/kg, 2.5 mg/kg and 5 mg/kg Compound I according to the body weight, respectively. After 1 h, the normal group was intraperitoneally injected with a corresponding volume of normal saline according to the body weight of the mice, while the model group and each administration group were injected with 7.5 mg/kg LPS. The administration volume was 10 mL/kg.
On day 2 of the experiment, the operations on day 1 were repeated. […]
The mice were individually placed in a square arena (40 × 40 × 40 cm) and allowed to move freely for 10 min. […] The time and frequency of mice contacting the objects or exploring within 2 cm of the objects (forepaws on the object, nose sniffing, or licking the object) were recorded. The preference index (PI) and discrimination index were calculated. […]

Assay [7] shares this test system. Description: Eight-arm maze test in mice with LPS-induced sepsis-associated encephalopathy. The settings on record: compared with the model group. As for the experimental part: After 1 week of acclimatization, 60 male C57BL/6J mice were randomly divided into five groups: normal group, model group, compound I low-dose group, Compound I medium-dose group and Compound I high-dose group, with 12 mice in each group.
After the experiment was started, the normal group and model group were intraperitoneally injected with normal saline according to the body weight. The Compound I low-, medium- and high-dose groups were intraperitoneally injected with 1 mg/kg, 2.5 mg/kg and 5 mg/kg compound I, respectively. After 1 h, the normal group was intraperitoneally injected with a corresponding volume of normal saline according to the body weight of the mice, while the model group and each administration group were injected with 10 mg/kg LPS, with an administration volume of 10 mL/kg.
Behavioral tests were performed in an automated eight-arm maze. Before the experiment was started, all the mice were required to undergo acclimatization training. The food intake of the mice was restricted daily to facilitate the rapid finding and memorization of food pellets placed in the 1st, 2nd, 4th and 7th arms during the test. On day 1, an equal amount of food pellets was placed in each arm. The mice were placed in the maze and then allowed to explore freely for 300 s before acclimatization was terminated. Starting from day 2, the automatic doors were first closed, and the mice were placed in the center of the maze for 15 s. The automatic doors were then opened to release the mice for testing. The training was terminated when the time reached 300 s or the mice found the food pellets. The training was conducted for a total of five days. Working memory errors were defined as repeated entries by the mice into arms where food pellets had already been found and consumed. Reference memory errors were defined as entries into arms without food pellets. The total number of arm entries was recorded as the total arm entries. The time required for the mice to find all food pellets was defined as the test duration. On the day 7 of the experiment, a formal trial was initiated, and this step unchanged. The frequencies of working memory errors and reference memory errors were calculated based on the recorded working memory errors, reference memory errors and total arm entries.

Assay [8] deals with mice with LPS-induced sepsis. Description: Serum inflammatory factors (ELISA) in mice with LPS-induced sepsis. The note with it: for IL-6 / TNF-α: serum, 24 h after LPS, x±s, n = 6; for serum inflammatory factor indices: result in words, compared with the model group. As to the method:
as §1
The blood samples were allowed to stand at room temperature for 1 h, followed by centrifugation at 3000 r/min to obtain serum. The serum was divided into two aliquots. One aliquot was processed in accordance with the instructions of TNF-α and IL-1β ELISA kits. Each well was measured at 450 nm using a microplate reader. The OD value of each sample was determined by subtracting the absorbance of the blank control well from the measured value. A standard curve was plotted based on the concentrations and OD values of standard samples to calculate the concentrations of the samples.
(In general: ELISA stands for enzyme-linked immunosorbent assay.)

Where [9] appears, read: 1 mg/kg i.p. 1 h before 20 mg/kg LPS.
[10] abbreviates: 2.5 mg/kg i.p. 1 h before 20 mg/kg LPS.
Where [11] appears, read: 5 mg/kg i.p. 1 h before 20 mg/kg LPS.
Where [12] appears, read: 1, 2.5 and 5 mg/kg i.p. 1 h before 10 mg/kg LPS, best effect in medium-dose group, FIG. 5.

For `Cn1c(C(=O)N2CCC(C(=O)Nc3cccc(Cl)c3)CC2)cc2ccccc21` [Compound I, N-(3-chlorophenyl)-1-(1-methyl-1H-indole-2-carbonyl)piperidine-4-carboxamide], the survival rate entry in assay [1] was “significantly improve the survival rate”. In addition, in assay [2] (setting [9]), the ALT is 69.44 ± 16.93 U/L, the AST is on record as 183.40 ± 37.18 U/L, the CREA-S is reported as 21.07 ± 5.89 and the UREA is recorded as 35.56 ± 8.88 mmol/L. In assay [2] (setting [10]), the ALT is reported as 67.83 ± 19.01 U/L, the AST amounted to 180.20 ± 54.87 U/L, the CREA-S is reported as 18.64 ± 6.72 and the UREA amounted to 26.02 ± 9.03 mmol/L. Also, in assay [2] (setting [11]), the ALT amounted to 59.61 ± 6.89 U/L, the AST was determined as 137.50 ± 26.26 U/L, the CREA-S is reported as 20.80 ± 7.59 and the UREA amounted to 22.69 ± 10.33 mmol/L. The “Nissl staining of the hippocampus region of the mouse brain tissue” value in assay [3] is “reduced neuronal pyknosis, recovered cell morphology and normal Nissl bodies”. Moreover, the brain index result in assay [4] is “significantly reduced”. For the same molecule, the “changes of renal tubules (abnormal dilation of renal tubules, atrophy of epithelial cells and lightening of cytoplasm), HE staining” value in assay [5] is “significantly ameliorated”. Moreover, in assay [6], the discrimination index result is on record as “increased” and the preference index result is recorded as “increased”. Besides, in assay [7] (setting [12]), the “frequency of reference memory errors” value is “decreased” and the “frequency of working memory errors” value was “decreased”. In addition, the test duration entry in assay [7] (medium- and high-dose groups (2.5 and 5 mg/kg i.p.), 10 mg/kg LPS) is reported as “decreased”. The “total numbers of arm entries” value in assay [7] (medium- and high-dose groups (2.5 and 5 mg/kg i.p.), 10 mg/kg LPS, most significant reduction in medium-dose group) is “decreased”. In assay [8] (setting [9]), this molecule registered an IL-6 of 20.10 ± 3.28 pg and a TNF-α of 127.00 ± 16.42 pg. In assay [8] (setting [10]), this molecule yielded an IL-6 of 17.60 ± 3.20 pg and a TNF-α of 76.30 ± 6.77 pg. In assay [8] (setting [11]), this molecule displayed an IL-6 of 17.04 ± 2.94 pg and a TNF-α of 14.00 ± 2.29 pg.
In the case of `O=C(Nc1cccc(Cl)c1)C1CCN(C(=O)c2ccc3ccccc3c2)CC1` [Control group 1], in assay [2] (setting [11]), the “serum ALT, AST, UREA and CREA-S levels” value is reported as “no significant improvements”; the ALT worked out at 78.19 ± 10.95 U/L; the AST amounted to 271.1 ± 25.31 U/L; the UREA stood at 46.47 ± 4.58 mmol/L. In addition, in assay [8] (setting [11]), the “serum inflammatory factor indices” value is on record as “no significant improvements”, the IL-6 came out at 24.72 ± 4.03 pg and the TNF-α is recorded as 244.20 ± 10.95 pg.
As to `O=C(c1cccc(O)c1)N1CCC(c2nc3cc(Cl)ccc3o2)CC1` [Control group 2], in assay [2] (setting [11]), the “serum ALT, AST, UREA and CREA-S levels” value was “no significant improvements”; the ALT was 77.76 ± 12.51 U/L; the AST was found to be 265.20±31.82 U/L; the CREA-S was determined as 43.99 ± 5.81. The molecule also registered a UREA in assay [2] (setting [11]) of 47.22 ± 3.39 mmol/L. For the same molecule, in assay [8] (setting [11]), the “serum inflammatory factor indices” value is on record as “no significant improvements”, the IL-6 was found to be 24.56 ± 3.56 pg and the TNF-α is 238.20 ± 9.79 pg.
In assay [2] (setting [9]), `C[C@@H]1C[C@H]2[C@@H]3CCC4=CC(=O)C=C[C@]4(C)[C@@]3(F)[C@@H](O)C[C@]2(C)[C@@]1(O)C(=O)CO` [Positive control group, dexamethasone] had an ALT of 58.94 ± 7.12 U/L, an AST of 142.8 ± 21.78 U/L and a UREA of 20.69 ± 5.68 mmol/L. Moreover, in assay [8] (setting [9]), the IL-6 is recorded as 16.49 ± 1.38 pg and the TNF-α was 79.27 ± 4.86 pg.
